{
  "source": "patent US11768205B2",
  "about": "“Methods and materials for identifying and treating cancers having elevated levels of phosphorylated ubiquitin” (Mayo Foundation for Medical Education and Research, priority 2017, dated 2023)",
  "key": {"[1]": {"test_system": "NIH-3T3 cells", "assay": "Western blot of Ub conjugates after FGFb", "type": "cell-based, mouse", "method": "FIG. 6. FGFR activation increases cellular Ub conjugates. (A to D). NIH-3T3 cells were serum starved for 48 hours and then treated with 20 ng/mL FGFb and harvested at different time course. Total Ub conjugates (A), K48-linked conjugates (B), and K63-linked conjugates (C) were determined by Western blot, and their intensities were quantitated and normalized to that of β-actin and then to time 0 in each group (D). Data were mean±SD of three independent experiments. (**: p<0.01, Student's t-test). (E to H). HEK293 cells were transfected with empty vector (Ctrl), FGFR2 wide type, or FGFR2 kinase dead mutant (KR). Total Ub conjugates (E), K48-linked conjugates (F), and K63-linked conjugates (G) were determined by Western blot, and their intensities were quantitated and normalized to that of β-actin and then to control in each group (H). Data were mean±SD of three independent experiments. (**: p<0.01, Student's t-test). (I to L). NIH-3T3 cells were serum starved for 48 hours and then treated with vehicle, FGFb, or FGFb and FGF inhibitor TKI-258. Total Ub conjugates (I), K48-linked conjugates (J), and K63-linked conjugates (K) were determined by Western blot, and their intensities were quantitated and normalized to that of β-actin and then to control in each group (L). Data were mean±SD of three independent experiments. (**: p<0.01, Student's t-test).\nCell lysates were prepared, and immunoprecipitation and immunoblotting were performed as described elsewhere (Deng et al., Mol. Cell, 61:614-624 (2016)). In brief, cells were lysed with NETN buffer (20 mM Tris-HCl, pH 8.0, 100 mM NaCl, 1 mM EDTA, 0.5% Nonidet P-40) containing 50 mM β-glycerophosphate, 10 mM NaF, and 1 mg/mL each of pepstatin A and aprotinin. Whole cell lysates were centrifuged at 12000 rpm for 15 minutes. Whole cell lysates were incubated with 2 of antibody and protein A or protein G Sepharose beads (Amersham Biosciences) for 2 hours or overnight at 4° C. The immunocomplexes were then washed with NETN buffer for three times and separated by SDS-PAGE. Immunoblotting was performed following standard procedures. […]"}, "[2]": {"test_system": "MDA-MB-468 cells", "assay": "Western blot of total, K48-linked and K63-linked Ub conjugates after EGF", "type": "cell-based, human", "method": "FIG. 3. EGFR enhances proteasomal degradation and promotes K48-linked ubiquitin conjugates. (A). MDA-MB-468 cells were serum starved for 24 hours and labeled with ^35S-Met for 24 hours. […] The rate of protein degradation was shown as the fraction of radiolabelled protein remaining over time. Data were mean±SD of three independent experiments. (**: p<0.01, two-way ANOVA test). (B and C). MDA-MB-468 cells were treated as in (A), except that 20 nM bortezomib (B) or 10 μM chloroquine (C) was present in the chase media. Data were mean±SD of three independent experiments. (**: p<0.01, two-way ANOVA test). (D). […] Total Ub conjugates, K48-linked conjugates, and K63-linked conjugates were determined by Western blot, and their intensities were quantitated and normalized to that of β-actin and then to time 0 in each group. Data were mean±SD of three independent experiments. (**: p<0.01, Student's t-test). (E). […] Total Ub conjugates, K48-linked conjugates, and K63-linked conjugates were determined by Western blot, and their intensities were quantitated and normalized to that of β-actin and then to control in each group. Data were mean±SD of three independent experiments. […] Total Ub conjugates, K48-linked conjugates, and K63-linked conjugates were determined by Western blot, and their intensities were quantitated and normalized to that of β-actin and then to time 0 in each group. […]"}, "[3]": {"test_system": "NIH-3T3 cells transformed by EGFR L858R", "assay": "Cell proliferation and MTS assay", "type": "cell-based, mouse", "conditions": "EGFR L858R transformed cells compared to Ctrl cells; FIG. 14G", "method": "FIG. 14. […] (A-D). NIH-3T3 cells were infected with virus expressing EGFR DM mutant. Cells were harvested at different times after infection. Total Ub conjugates (A), K48-linked conjugates (B), and K63-linked conjugates (C) were determined by Western blot, and their intensities were quantitated and normalized to that of β-actin. Data were mean±SD of three independent experiments. (**: p<0.01, Student's t-test). (E) NIH-3T3 cells were infected with virus expressing EGFR DM mutant. Cells were harvested at different times after infection. Cell lysates were blotted with an anti-pY59 antibody. (F). NIH-3T3 stably expressing empty vector (Ctrl) or EGFR L858R mutant were serum starved for 48 hours and were labeled with ^35S Met for 24 hours in the absence of serum. […] At different time points, cells were harvested, and radiolabeled protein remaining in the cell was measured. The rate of protein degradation was shown as the fraction of radiolabeled protein remaining over time. […]\n90 μL of cells (5×10^5 cells/mL) were plated into each well of 96-well plates (Corning, Lowell, Mass.; MacLean et al., Bioinformatics, 26:966-968 (2010)) and were treated with 10 μL of bortezomib at the final concentrations of 0, 0.0457, 0.1372, 0.4115, 1.2346, 3.7037, 11.1111, 33.3333 and 100 nM. […] Plates were then read in a microplate reader at absorbance of OD 490 (Tecan AG, Switzerland)."}, "[4]": {"test_system": "MDA-MB-468 cells", "assay": "Pulse-chase measurement of protein degradation (35S-Met)", "type": "cell-based, human", "method": "FIG. 3. EGFR enhances proteasomal degradation and promotes K48-linked ubiquitin conjugates. (A). MDA-MB-468 cells were serum starved for 24 hours and labeled with ^35S-Met for 24 hours. […] The rate of protein degradation was shown as the fraction of radiolabelled protein remaining over time. Data were mean±SD of three independent experiments. (**: p<0.01, two-way ANOVA test). (B and C). MDA-MB-468 cells were treated as in (A), except that 20 nM bortezomib (B) or 10 μM chloroquine (C) was present in the chase media. Data were mean±SD of three independent experiments. (**: p<0.01, two-way ANOVA test). (D). […] Total Ub conjugates, K48-linked conjugates, and K63-linked conjugates were determined by Western blot, and their intensities were quantitated and normalized to that of β-actin and then to time 0 in each group. Data were mean±SD of three independent experiments. (**: p<0.01, Student's t-test). (E). […] Total Ub conjugates, K48-linked conjugates, and K63-linked conjugates were determined by Western blot, and their intensities were quantitated and normalized to that of β-actin and then to control in each group. Data were mean±SD of three independent experiments. (**: p<0.01, Student's t-test). (F). HEK293 cells were transfected with empty vector (Ctrl) or constitutively-active EGFR (encoding the T790M/L858R mutation) and treated with AG-1478. Total Ub conjugates, K48-linked conjugates, and K63-linked conjugates were determined by Western blot, and their intensities were quantitated and normalized to that of β-actin and then to time 0 in each group. Data were mean±SD of three independent experiments. (**: p<0.01, Student's t-test).\nFIG. 4. EGF treatment raises the cellular content of Ub conjugates independent of EGFR ubiquitination and new protein synthesis. (A-D). […] Total Ub conjugates (A), K48-linked conjugates (B), and K63-linked conjugates were determined by Western Blot, and their intensities were quantitated and normalized to that of β-actin and then to control at time 0 in each group (D). Data were mean±SD of three independent experiments. (**: p<0.01, Student's t-test). (E). […] At different time points, cells were harvested, and radiolabeled protein remaining in the cell was measured. […] Cells were treated as illustrated in (A), and the radioactivity of remaining in cells was measured. […] The levels of Ub conjugates and β-actin were determined by Western blot (C) and quantitated (D). […]\nTo assess protein degradation, cells were starved for 30 minutes with methionine-free DMEM and pulse labelled for 16-24 hours with 0.5 mL of medium containing 0.1 mCi of ^35S-Met. […] After washing in cold PBS, cells were treated in chase medium for various times, and the remaining radioactivity in cells was measured as described elsewhere (Taelman et al., Cell, 143:1136-1148 (2010)). […]"}, "[5]": {"test_system": "MDA-MB-468 cells", "assay": "Immunoblot of Ub Y59 phosphorylation with anti-pY59 antibody", "type": "cell-based, human", "conditions": "20 ng EGF, time dependent; FIG. 7D", "method": "FIG. 7. EGFR phosphorylates ubiquitin. (A). An in vitro kinase assay was performed at 30° C. for 1 hour in the presence of EGFR and different tetra-Ub chain or free Ub. The gels were subjected to western blot with anti-phosphor-tyrosine antibody (upper panel) or Coomassie brilliant blue (CBB) staining (lower panel). (B). Lysates from EGF treated cells was trypsinized and subjected to liquid chromatography tandem mass spectrometry (LC-MS/MS) analysis. (C). […] Absolute quantification of […] and TLSD(pY)[…] from control of EGF treated cells were quantified by Parallel Reaction Monitoring. Data were mean±SD of three independent experiments. (**: p<0.01, Student's t-test). […] Cell lysates were blotted with the anti-pY59 antibody. (E). […] Cell lysates were blotted with antibodies against pY59 and β-actin. (F). WT Ub- and Ub Y59F-replacement cells were serum starved and induced with DOX for 72 hours to replace endogenous Ub with WT Ub or Ub Y59F. […] Cell lysates were blotted with antibodies against pY59 and β-actin.\nCell lysates were prepared, and immunoprecipitation and immunoblotting were performed as described elsewhere (Deng et al., Mol. Cell, 61:614-624 (2016)). In brief, cells were lysed with NETN buffer (20 mM Tris-HCl, pH 8.0, 100 mM NaCl, 1 mM EDTA, 0.5% Nonidet P-40) containing 50 mM β-glycerophosphate, 10 mM NaF, and 1 mg/mL each of pepstatin A and aprotinin. […]"}},
  "data": [
    {"compound": "CC(O)C(=O)O.CN1CCN(c2ccc3nc(-c4c(N)c5c(F)cccc5[nH]c4=O)[nH]c3c2)CC1", "note": "[TKI-258, Dovitinib (TKI 258)]", "values": [
      {"measurement": "effect on increase in Ub conjugates induced by FGFb", "setting": "[1]; FGFb and TKI-258, FIGS. 6I-L", "value": "blocked"}
    ]},
    {"compound": "N#CC(=C(/N)Sc1ccccc1N)/C(C#N)=C(\\N)Sc1ccccc1N", "note": "[U0126]", "values": [
      {"measurement": "effect on stimulation of Ub chain assembly by EGF", "setting": "[2]; pretreated 12 hours before EGF treatment, FIGS. 5B-E", "value": "did not affect"}
    ]},
    {"compound": "CC(C)C[C@H](NC(=O)[C@H](Cc1ccccc1)NC(=O)c1cnccn1)B(O)O", "note": "[bortezomib]", "values": [
      {"measurement": "bortezomib sensitivity", "setting": "[3]", "value": "much higher"}
    ]},
    {"compound": "C[C@@H]1C[C@@H]([C@H](O)CC2CC(=O)NC(=O)C2)C(=O)[C@@H](C)C1", "note": "[cycloheximide]", "values": [
      {"measurement": "proteasomal proteolysis", "setting": "[4]; 100 μg/mL cycloheximide by itself, chloroquine in chase, FIG. 4G", "value": "reduced"}
    ]},
    {"compound": "EGF: growth factor used to activate EGFR (NSDSECPLSHDGYCLHDGVCMYIEALDKYACNCVVGYIGERCQYRDLKWWELR; Epidermal growth factor; UniProt P01133 971-1023, looked up)", "values": [
      {"measurement": "rate of protein degradation", "setting": "[4]; EGF in chase medium, FIG. 3A", "value": "decrease"},
      {"measurement": "lysosome-dependent degradation", "setting": "[4]; EGF, in the presence of 20 nM bortezomib, FIG. 3B", "value": "inhibited"},
      {"measurement": "proteasome-mediated proteolysis", "setting": "[4]; EGF, in the presence of 10 μM chloroquine, FIG. 3C", "value": "increased dramatically"},
      {"measurement": "cellular ubiquitin conjugates", "setting": "[2]; 20 ng EGF, time dependent, FIG. 3D", "value": "significantly higher"},
      {"measurement": "phosphorylation of Ub", "setting": "[5]", "value": "dramatic increase"}
    ]},
    {"compound": "FGFb: FGF basic, growth factor used to activate FGFR", "values": [
      {"measurement": "increase in total content of ubiquitinated proteins and K48-linked Ub conjugates", "setting": "[1]; 20 ng/mL FGFb for 20 minutes, FIGS. 6A-D", "value": 50, "unit": "%"},
      {"measurement": "treatment time to maximal increase in Ub conjugates", "setting": "[1]; 20 ng/mL FGFb, FIGS. 6A-D", "value": 40, "unit": "min"}
    ]}
  ]
}
